The values below come from the METLIN SMRT retention time set (Domingo-Almenara et al. 2019).

The nature of this data set: gradient 5% acetonitrile 3 min, to 50% in 2 min, to 85% in 15 min, held 3 min, 100 µL/min. To be noted: column: Zorbax Extend-C18 2.1 x 50 mm; eluents: water / acetonitrile, 0.1% formic acid. The method in brief: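 Over 3 months, pure standards in mixtures of ~100 molecules were run by HPLC coupled to a quadrupole time-of-flight mass spectrometer in positive and negative ionization mode. The column was a Zorbax Extend-C18 (2.1 × 50 mm, 1.8 μm) at 100 μL/min, eluted with water and acetonitrile each holding 0.1% formic acid, with 40 μL dead and 900 μL dwell volumes. Retention time was determined from adduct peaks chosen by software and checked manually.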
Consider `CCCCOc1ccc(-c2cc3c(N4CCN(c5ccccn5)CC4)nccn3n2)cc1`, for which the RP-LC retention time turned out to be 822 s.
For the molecule `CCc1nn2c(CNS(=O)(=O)Cc3cc(F)cc(F)c3)c(-c3ccccc3)nc2s1`, the RP-LC retention time was determined as 1010 s.
`O=C(NCCCN1CCOCC1)c1csc(-c2ccc(N3CCCC3)nc2)n1`: the RP-LC retention time stood at 553 s.
With `CN(C)c1ccc2c(c1)CN(C(=O)Cn1c(=O)oc3ccccc31)CCO2`, the RP-LC retention time was determined as 621 s.
Next, `CN1CCN(Cc2nc3cc(NC(=O)C4CCCCC4)ccc3n2C)CC1`: 574 s; `Cc1nnc(-c2nnc(NCc3ccccc3)c3ccccc23)o1`: 776 s; `COC(=O)c1cn(Cc2c(F)cccc2Cl)nc1S(=O)(=O)N(C)c1ccccc1`: 718 s.
Next, `CCC(=O)Nc1c(C)noc1/C=C/c1ccc(S(=O)(=O)N2CCC(C)CC2)s1`: 919 s.
In the case of `CC(C)c1cc(=O)n(CC(=O)NCCn2nc(-c3cccs3)ccc2=O)cn1`, the RP-LC retention time turned out to be 619 s.
Consider `COc1cccc(CN2CC[C@@H]3CN(S(C)(=O)=O)[C@@H]3C2)c1OC`, for which the RP-LC retention time amounted to 604 s.
`CCOC(=O)c1cccc(NC(=O)c2c(OCC)cc(=O)n3c2CCCC3)c1` came in with an RP-LC retention time of 772 s.
As to `CCOc1ccc(S(=O)(=O)N2CCC(c3nc(C(=O)N4CCCC4)c(C)o3)CC2)cc1`, the RP-LC retention time worked out at 941 s.
As for `Cc1cc2c(cc(C(=O)N3CCC(C(=O)NC4CCCC4)CC3)n2Cc2c(F)cccc2Cl)o1`, the figure is 998 s; as for `CCN(CC)C(=O)c1sc2ncn(CC(=O)N3CCCCC3C)c(=O)c2c1C` (centres undefined), 752 s.
Take `COc1cccc(-n2cc(C(=O)OCc3ccncc3)c3ccccc3c2=O)c1`: the RP-LC retention time came to 714 s.
Take `CCOc1ccc2ncc(S(=O)(=O)c3ccc(C)c(C)c3)c(N3CCN(C)CC3)c2c1`: the RP-LC retention time was 658 s.
`COc1ccc(Cn2c(=O)c3sccc3n(Cc3nc(-c4ccccc4)no3)c2=O)cc1` displayed an RP-LC retention time of 1000 s.
With `CN1CCCc2cc(CCNC(=O)c3c(F)cccc3F)ccc21`, the RP-LC retention time amounted to 614 s.
As for `Cc1cc2[nH]c(C(=O)Nc3cc(F)c(F)c(F)c3)c(CN3CCOCC3)c2s1`, the RP-LC retention time is 737 s.
`CC(C)C(=O)Nc1c(-c2ccc(F)cc2)nc2ccccn12` gave an RP-LC retention time of 602 s.
Molecule `O=C(CN1C(=O)COc2ccc(C(=O)N3CCCCC3)cc21)NC1CCCCCCC1` yielded an RP-LC retention time of 844 s.
Next, `COc1cc(-c2noc(C3CC(=O)N(c4ccc(C)c(Cl)c4)C3)n2)cc(OC)c1OC` (centres undefined): 1050 s; `COC(=O)c1c(NC(=O)CSc2nnnn2-c2ccccc2OC)sc2c1CCC2`: 1060 s.
For `CCCN(CC1CCOC1)C(=O)Nc1cc(F)cc(F)c1` (centres undefined), the RP-LC retention time was 871 s.
Take `Cc1ccc(-n2c(=O)c3c(cc(C)n3C)n(CC(=O)Nc3cccc(Cl)c3C)c2=O)cc1`: the RP-LC retention time was found to be 918 s.
In turn, `O=C(NCC(F)(F)F)c1cnccn1` had an RP-LC retention time of 597 s.
As for `COc1cccc(CNc2nccc(-n3nc(C)cc3C)n2)c1`, the figure is 808 s; as for `O=C(c1ccsc1)N1CCN(Cc2ccc(=O)n(CC3CC3)c2)CC1`, 543 s.
For the molecule `O=C(CCn1cnc2ccccc2c1=O)N1CCN(CCn2cccn2)CC1`, the RP-LC retention time was 539 s.
Next, `CCCS(=O)(=O)c1nc2ccc(NS(=O)(=O)c3cccc(F)c3)cc2s1`: 918 s; `CCC(CC)C(=O)Nc1cccc(C(=O)Nc2nc(-c3ccccc3)cs2)c1`: 1070 s.
`COCCCNC(=O)CN1CC2=C(C1=O)C(c1ccccc1Cl)NC(=O)N2C` (centres undefined) had an RP-LC retention time of 570 s.
`Cc1ccc(-c2cc3n(n2)CCCN(C(=O)CCCC(=O)n2nc(C)c4ccccc42)C3)o1` returned an RP-LC retention time of 859 s.
For the molecule `COc1ccc(CCC(=O)N2CCN(c3nnc4ccc(C(F)(F)F)cn34)CC2)cc1`, the RP-LC retention time was determined as 709 s.
As for `CCC(C(=O)NCCc1ccco1)n1c2ccccc2c2cnn(C)c(=O)c21` (centres undefined), the figure is 864 s; as for `COCCNc1c(C(=O)OC)c(=O)[nH]c2ccc(F)cc12`, 622 s.
Take `CCSc1nc2c(s1)c(=O)n(-c1ccccc1)c(=O)n2CC(=O)NCc1ccccc1`: the RP-LC retention time was found to be 924 s.
Molecule `c1cn(-c2ccc(-c3noc(-c4ccc5c(c4)OCO5)n3)cn2)cn1` registered an RP-LC retention time of 853 s.
`CCCNC(=O)CCc1nc2ccccc2n(CC(=O)NCc2ccccc2Cl)c1=O` showed an RP-LC retention time of 794 s.
As to `CCc1cccc(NC(=O)C2CCCN2S(=O)(=O)c2cc3c(cc2Cl)NC(=O)CO3)c1` (centres undefined), the RP-LC retention time worked out at 836 s.
Molecule `CC1CCC2(CC1)N=C(N1CCN(c3ncccn3)CC1)NC(=O)C2C#N` (centres undefined) yielded an RP-LC retention time of 649 s.
`CCOC(=O)C1=C(C)NC2=C(C(=O)c3ccccc32)C1c1ccc(OC)c(OC)c1` (centres undefined) gave an RP-LC retention time of 902 s.
Consider `CCCn1c(-c2cccc(C(=O)N3CCC4(CC3)OCCO4)c2)nc2cccnc21`, for which the RP-LC retention time is 684 s.
Turning to `CC1CCN(CCCNC(=O)c2nnc(-c3ccc(S(=O)(=O)N4CCOCC4)cc3)o2)CC1`, the RP-LC retention time was 608 s.
Turning to `Cc1nc(-c2cn(C)c3ncccc23)sc1C(=O)Nc1cc(F)ccc1F`, the RP-LC retention time came to 944 s.
Molecule `O=C(c1ccc(F)c(Cl)c1)N1CCN(c2nc(CN3CCOCC3)cs2)CC1` showed an RP-LC retention time of 638 s.
Turning to `COc1ccc(NC(=O)N2c3ccccc3CC2c2nc(C(C)C)no2)cc1OC` (centres undefined), the RP-LC retention time came to 935 s.
With `Cc1nn(-c2ccccc2)c2c1-c1sc(C(=O)N3CCN(c4ccccn4)CC3)cc1CC2`, the RP-LC retention time turned out to be 671 s.
Turning to `Cc1ccc(-c2noc(C3CCCN3C(=O)c3ccccc3F)n2)cc1` (centres undefined), the RP-LC retention time stood at 1030 s.
Next, `O=C(CCC(=O)N1CC2CCCN2c2ccccc21)NCCc1cccs1` (centres undefined): 906 s; `CN(CC(=O)Nc1ccc(F)cc1)C(=O)C1CCN(c2cnn(C)c(=O)c2)C1` (centres undefined): 634 s.
As for `COc1cccc(N2CCN(C(=O)C3CCN(c4nnc(-c5ccccc5)o4)CC3)CC2)c1`, the figure is 807 s; as for `Cc1cccc(-c2nnc(C)c(N3CCCC3)n2)c1`, 656 s.
For `O=C(NCCCn1c(C(F)(F)F)nc2cccnc21)Nc1ccccc1Br`, the RP-LC retention time was 860 s.
For the molecule `COC(=O)C1CCN(S(=O)(=O)c2ccc(Cl)c(-c3nnc(-c4ccccc4)o3)c2)CC1`, the RP-LC retention time came to 1040 s.
On to `CCOc1cc(C(=O)Nc2c(-c3ccccc3)nc3cc(C)ccn23)cc(OCC)c1OCC`, for which the RP-LC retention time is 775 s.
In turn, `Cc1oc2ncnc(N3CCOCC3)c2c1C(=O)N1CCCc2ccccc21` displayed an RP-LC retention time of 790 s.
Molecule `O=C(Cn1c(=O)c(S(=O)(=O)c2ccccc2)cc2ccccc21)NCc1ccccc1` gave an RP-LC retention time of 858 s.
`O=c1c2sccc2n(Cc2nc(-c3ccc(F)cc3)no2)c(=O)n1Cc1ccccc1Cl` returned an RP-LC retention time of 1160 s.
The molecule `CCc1nnc([C@@H]2CC(F)(F)CN2C(=O)c2coc(C)n2)o1` yielded an RP-LC retention time of 678 s.
`CCCn1c(=O)sc2cc(S(=O)(=O)N3CCC(C(=O)N4CCN(C)CC4)CC3)ccc21` had an RP-LC retention time of 628 s.
Molecule `O=C(Cc1ccc(F)cc1)N1CCCCC1c1nncn1CC1CC1` (centres undefined) had an RP-LC retention time of 735 s.
`Cc1cc(-n2c(C)nc3ccccc3c2=O)ccc1NC(=O)Cc1cccs1`: the RP-LC retention time was 769 s.
Next, `COCCNc1c(-c2cccc(F)c2)nc2sc(C(=O)NC3CCCC3)c(C)n12`: 917 s.
Next, `Cc1ccc(C(=O)Nc2cnc(-c3ccc(Cl)cc3)nc2)s1`: 1130 s.
Molecule `CCN1C(=O)CN(C(=O)CC(C)C)CC12CCOCC2` showed an RP-LC retention time of 634 s.
In turn, `CCOc1ccccc1C(=O)Nc1c(-c2ccc(F)cc2)nc2ccccn12` showed an RP-LC retention time of 719 s.
As for `Cc1nc(-c2ccncc2)nc2c1CCC(=O)N2C1CCCC1`, the figure is 773 s.
Regarding `Fc1cc(F)cc(-c2noc3ncnc(N4CCN(c5ccccn5)CC4)c23)c1`, the RP-LC retention time was found to be 678 s.
Consider `Cc1oc(C2CCC2)nc1C(=O)NCc1cccc(C(F)(F)F)c1`, for which the RP-LC retention time worked out at 1110 s.
Take `CS(=O)(=O)Nc1ccc(C2(C(=O)NCc3ccc(F)c(Cl)c3)CCCCC2)cc1`: the RP-LC retention time was found to be 950 s.
In the case of `O=C(Nc1cc(F)ccc1F)C1CCN(S(=O)(=O)c2cccnc2)CC1`, the RP-LC retention time was found to be 784 s.
With `O=C(C1=CN(c2cccc(Cl)c2)c2ccccc2S1(=O)=O)N1CCCC1`, the RP-LC retention time amounted to 814 s.
Molecule `O=C(c1ccncc1)N1CCc2cc(-c3csc(C4CC4)n3)ccc21` registered an RP-LC retention time of 848 s.
`Cc1ccc(CNC(=O)C2Cn3cccc3C(=O)N2C)o1` (centres undefined) had an RP-LC retention time of 663 s.
Next, `Cn1nccc1-c1cccc(-c2noc(C3CCN(S(=O)(=O)c4ccc(Cl)cc4)CC3)n2)c1`: 1120 s; `CC(C)n1c(=O)oc2cc(S(=O)(=O)N3CCN(C(=O)C4(c5ccccc5)CC4)CC3)ccc21`: 902 s.
Regarding `Cc1cccc(-c2[nH]ncc2-c2ccc3ncccc3n2)n1`, the RP-LC retention time worked out at 635 s.
In the case of `Cc1cccc(NC(=O)N2CCCC2c2nc(-c3ccccc3)no2)c1C` (centres undefined), the RP-LC retention time worked out at 977 s.
